Experimental data published in DBAASP.
Converted amounts (≈) assume the structure as drawn. “And” between values parts separate entries of the source, which are not always exact repeats. Identical values can stand only once.

Experiments:
Assay in all cases: ≥ marks a high value that may be exact or a test limit, other limits are often not marked, values filed in µg/mL are converted to µM
[1] = system: Escherichia coli ATCC 25922
[2] = system: Escherichia coli BNCC 133264
Escherichia coli = system: Escherichia coli
Klebsiella pneumoniae = system: Klebsiella pneumoniae
Listeria monocytogenes = system: Listeria monocytogenes
[3] = system: Pseudomonas aeruginosa ATCC 27853
[4] = system: Pseudomonas aeruginosa BNCC 125486
[5] = system: Staphylococcus aureus ATCC 25923
[6] = system: Staphylococcus aureus BNCC 186335
[7] = system: Escherichia coli BL21(DE3)
[8] = system: Bacillus cereus ATCC 10876
[9] = system: Enterococcus faecalis ATCC 29212
[10] = system: Salmonella enterica subsp. enterica serovar Typhimurium ATCC 14028
[11] = system: Staphylococcus aureus ATCC 29213
[12] = system: Staphylococcus aureus ATCC 6538
[13] = system: Streptococcus agalactiae ATCC 27956
[14] = system: Streptococcus dysgalactiae subsp. dysgalactiae ATCC 27957
[15] = system: Streptococcus equi subsp. zooepidemicus ATCC 43079
[16] = system: Streptococcus iniae KCTC 3657
Aeromonas hydrophila = system: Aeromonas hydrophila
Staphylococcus aureus = system: Staphylococcus aureus
Streptococcus pyogenes = system: Streptococcus pyogenes
Vibrio alginolyticus = system: Vibrio alginolyticus
Vibrio fluvialis = system: Vibrio fluvialis
Vibrio parahaemolyticus = system: Vibrio parahaemolyticus
[17] = system: Aeromonas salmonicida CIP 103209T
[18] = system: Enterococcus faecalis CIP 76.117
[19] = system: Escherichia coli CIP 54.8T
[20] = system: Listeria monocytogenes CIP 110871
[21] = system: Staphylococcus aureus CIP 53.156
[22] = system: Vibrio vulnificus CIP 109783
[23] = system: Acinetobacter baumannii KCTC 2508
[24] = system: Klebsiella pneumoniae KCTC 2208
[25] = system: Aspergillus flavus PFCC 100
[26] = system: Aspergillus fumigatus Af293
[27] = system: Aspergillus niger ATCC 9029
[28] = system: Candida albicans ATCC 10231
[29] = system: Candida glabrata ATCC 90030
Candida krusei DSM 70079 = system: Candida krusei DSM 70079
Streptococcus sanguinis = system: Streptococcus sanguinis

CC[C@H](C)[C@H](NC(=O)[C@H](CCCCN)NC(=O)[C@H](CC(N)=O)NC(=O)[C@H](CC(C)C)NC(=O)[C@@H](NC(=O)[C@H](CCCCN)NC(=O)[C@@H]1CCCN1)[C@@H](C)CC)C(=O)N[C@@H](CC(C)C)C(=O)NCC(=O)N[C@@H](CCCCN)C(=O)N[C@H](C(=O)N[C@@H](CC(C)C)C(=O)N[C@@H](CCCN=C(N)N)C(=O)N[C@@H](CC(C)C)C(=O)N[C@@H](C)C(=O)N[C@@H](C)C(=O)N[C@@H](C)C(=O)N[C@@H](Cc1ccccc1)C(=O)N[C@@H](CCCCN)C(N)=O)[C@@H](C)CC [PKILNKILGKILRLAAAFK]
MIC [1]: 1.5 µM (≈ 3.16 µg/mL)
MIC [2]: 1.9 µM (≈ 4 µg/mL)
MIC (Escherichia coli): 1.9 µM (≈ 4 µg/mL)
MIC (Klebsiella pneumoniae): 6.25 µM (≈ 13.2 µg/mL)
MIC (Listeria monocytogenes): 1.9 µM (≈ 4 µg/mL)
MIC [3]: 1.5 µM (≈ 3.16 µg/mL)
MIC [4]: 1.9 µM (≈ 4 µg/mL)
MIC [5]: 3 µM (≈ 6.32 µg/mL)
MIC [6]: 0.949 µM (≈ 2 µg/mL)

CC[C@H](C)[C@H](NC(=O)[C@H](CC(C)C)NC(=O)[C@H](CCCN=C(N)N)NC(=O)[C@@H](NC(=O)[C@H](CC(C)C)NC(=O)[C@H](CCCN=C(N)N)NC(=O)[C@@H](N)CCCN=C(N)N)[C@@H](C)CC)C(=O)N[C@@H](CC(C)C)C(=O)N[C@@H](CCCN=C(N)N)C(=O)N[C@@H](CC(C)C)C(=O)N[C@@H](CC(C)C)C(=O)N[C@@H](CCCN=C(N)N)C(N)=O [RRLIRLILRLLR]
MIC [7]: 4 µM and 8 µM

CC[C@H](C)[C@H](NC(=O)[C@H](CCCN=C(N)N)NC(=O)[C@H](Cc1c[nH]c2ccccc12)NC(=O)CNC(=O)[C@H](Cc1ccc(O)cc1)NC(=O)[C@H](CCCN=C(N)N)NC(=O)[C@H](CCCN=C(N)N)NC(=O)[C@H](C)NC(=O)[C@H](Cc1ccccc1)NC(=O)[C@H](CCCN=C(N)N)NC(=O)CNC(=O)[C@H](C)NC(=O)CNC(=O)[C@H](CCCN=C(N)N)NC(=O)[C@@H](NC(=O)[C@H](Cc1ccccc1)NC(=O)[C@H](CCCN=C(N)N)NC(=O)[C@H](CCCN=C(N)N)NC(=O)[C@H](Cc1c[nH]c2ccccc12)NC(=O)[C@H](CCCN=C(N)N)NC(=O)[C@H](CO)NC(=O)[C@H](CCCN=C(N)N)NC(=O)[C@@H](N)[C@@H](C)O)[C@@H](C)CC)C(=O)N[C@@H](C)C(=O)O [TRSRWRRFIRGAGRFARRYGWRIA]
MIC [8]: 3.28 µM (≈ 10 µg/mL)
MIC [9]: 13.1 µM (≈ 40 µg/mL)
MIC [1]: 0.328 µM (≈ 1 µg/mL)
MIC (Escherichia coli): 1.54 µM (≈ 4.7 µg/mL)
MIC (Klebsiella pneumoniae): 0.387 µM (≈ 1.18 µg/mL)
MIC [3]: 0.983 µM (≈ 3 µg/mL)
MIC [10]: 0.164 µM (≈ 0.5 µg/mL)
MIC [11]: > 41.9 µM
MIC [12]: 1.3 µM (≈ 3.97 µg/mL)
MIC [13]: 13.1 µM (≈ 40 µg/mL)
MIC [14]: 13.1 µM (≈ 40 µg/mL)
MIC [15]: 6.6 µM (≈ 20.1 µg/mL)
MIC [16]: 10.5 µM (≈ 32 µg/mL)

CC[C@H](C)[C@H](NC(=O)[C@H](CCCCN)NC(=O)[C@H](Cc1cnc[nH]1)NC(=O)[C@H](CC(C)C)NC(=O)[C@H](CC(C)C)NC(=O)[C@H](Cc1ccccc1)NC(=O)[C@H](CC(N)=O)NC(=O)[C@@H](N)C(C)C)C(=O)N[C@@H](Cc1ccc(O)cc1)C(=O)NCC(=O)N[C@@H](CC(N)=O)C(=O)N[C@H](C(=O)N[C@@H](CCCN=C(N)N)C(=O)N[C@@H](Cc1ccc(O)cc1)C(=O)N[C@@H](CO)C(=O)O)[C@@H](C)CC [VNFLLHKIYGNIRYS]
MIC (Aeromonas hydrophila): 2.12 µM (≈ 3.9 µg/mL)
MIC (Escherichia coli): 2.12 µM (≈ 3.9 µg/mL)
MIC (Staphylococcus aureus): 34 µM (≈ 62.5 µg/mL)
MIC (Streptococcus pyogenes): ≥ 34 µM
MIC (Vibrio alginolyticus): 2.12 µM (≈ 3.9 µg/mL)
MIC (Vibrio fluvialis): ≥ 34 µM
MIC (Vibrio parahaemolyticus): 17 µM (≈ 31.2 µg/mL)

CC[C@H](C)[C@H](NC(=O)[C@H](CC(C)C)NC(=O)[C@H](CC(=O)O)NC(=O)[C@H](Cc1cnc[nH]1)NC(=O)[C@@H](NC(=O)[C@H](CO)NC(=O)[C@H](CCCCN)NC(=O)CNC(=O)[C@@H](NC(=O)[C@H](Cc1cnc[nH]1)NC(=O)[C@H](Cc1ccccc1)NC(=O)[C@H](CC(C)C)NC(=O)CNC(=O)CNC(=O)[C@@H](NC(=O)[C@@H](NC(=O)[C@H](Cc1cnc[nH]1)NC(=O)[C@H](Cc1cnc[nH]1)NC(=O)[C@@H](NC(=O)[C@@H](N)Cc1ccccc1)[C@@H](C)CC)[C@@H](C)CC)[C@@H](C)CC)C(C)C)[C@@H](C)CC)C(=O)N[C@@H](CCCN=C(N)N)C(=O)O [FIHHIIGGLFHVGKSIHDLIR]
MIC [17]: 7.07 µM (≈ 17 µg/mL)
MIC [18]: 15.8 µM (≈ 38.1 µg/mL)
MIC [19]: 15.8 µM (≈ 38.1 µg/mL)
MIC [20]: 15.8 µM (≈ 38.1 µg/mL)
MIC [21]: 7.07 µM (≈ 17 µg/mL)
MIC [22]: ≥ 35.4 µM

CC[C@H](C)[C@H](N)C(=O)N[C@@H](C)C(=O)N[C@@H](CCCN=C(N)N)C(=O)N[C@@H](CCCN=C(N)N)C(=O)N[C@@H](C)C(=O)N[C@@H](CC(C)C)C(=O)N[C@@H](CCCCN)C(=O)N[C@@H](C)C(=O)N[C@@H](CO)C(=O)N[C@@H](CC(C)C)C(=O)N[C@@H](CCCN=C(N)N)C(=O)N[C@@H](C)C(=O)N[C@@H](CCCN=C(N)N)C(=O)N[C@@H](Cc1cnc[nH]1)C(=O)N[C@H](C(=O)N[C@H](C(=O)N1CCC[C@H]1C(=O)N[C@@H](CCC(N)=O)C(=O)N[C@@H](CS)C(=O)N[C@@H](CCCCN)C(=O)N[C@@H](CCCCN)C(=O)N[C@@H](Cc1ccccc1)C(=O)NCC(=O)N[C@@H](CCCN=C(N)N)C(=O)N[C@@H](CCCN=C(N)N)C(N)=O)[C@@H](C)CC)[C@@H](C)O [IARRALKASLRARHTIPQCKKFGRR]
MIC [23]: 4 µM (≈ 11.7 µg/mL)
MIC [24]: 8 µM (≈ 23.5 µg/mL)
MIC [3]: 4 µM (≈ 11.7 µg/mL)

CC[C@H](C)[C@H](NC(=O)CNC(=O)[C@@H](NC(=O)[C@H](Cc1ccccc1)NC(=O)[C@H](C)NC(=O)[C@H](CCCCN)NC(=O)[C@@H](NC(=O)[C@H](CO)NC(=O)[C@@H](N)CC(C)C)C(C)C)[C@@H](C)O)C(=O)N[C@@H](CCC(N)=O)C(=O)N[C@@H](CC(C)C)C(=O)N[C@@H](CCCN=C(N)N)C(=O)NCC(=O)N[C@H](C(=O)N[C@@H](CS)C(=O)NCC(=O)N[C@H](C(=O)N[C@@H](CCC(=O)O)C(=O)N[C@H](C(=O)N[C@@H](CCCCN)C(=O)N[C@@H](C)C(=O)N[C@@H](CCCN=C(N)N)C(=O)NCC(=O)O)C(C)C)[C@@H](C)CC)C(C)C [LSVKAFTGIQLRGVCGIEVKARG]
MIC [25]: 13.3 µM (≈ 32 µg/mL)
MIC [26]: 6.66 µM (≈ 16 µg/mL)
MIC [27]: 6.66 µM (≈ 16 µg/mL)
MIC [28]: 6.66 µM (≈ 16 µg/mL)
MIC [29]: 3.33 µM (≈ 8 µg/mL)
MIC (Candida krusei DSM 70079): 6.66 µM (≈ 16 µg/mL)

NC(=O)[C@H](Cc1ccccc1)NC(=O)[C@H](Cc1ccccc1)NC(=O)[C@H](Cc1ccccc1)NC(=O)[C@H](Cc1ccccc1)NC(=O)[C@@H](N)Cc1ccccc1 [FFFFF]
MIC (Staphylococcus aureus): 33.8 µM (≈ 25.5 µg/mL)
MIC (Streptococcus sanguinis): ≥ 36.3 µM
